Experimental data: ChEMBL document CHEMBL1136865, “Effects of detergents on the West Nile virus protease activity” (Bioorg Med Chem, 2009)
Activity calls are given as the source filed them. The rule behind the calls is not given here.

Experiments:
[1] = system: West Nile virus; test: Increase in West Nile virus NS3 protease activity up to 0.5% by spectrofluorimetry using Boc-Gly-Lys-Arg-AMC substrate relative to control
[2] = system: West Nile virus; test: Increase in West Nile virus NS3 protease activity at =>0.01 to 0.1 % by spectrofluorimetry using Boc-Gly-Lys-Arg-AMC substrate relative to control

Activity [1]: inactive
Activity [2]: inactive
SMILES: C[C@H](CCC(=O)NCCC[N+](C)(C)CCCS(=O)(=O)[O-])[C@H]1CC[C@H]2[C@@H]3[C@H](O)C[C@@H]4C[C@H](O)CC[C@]4(C)[C@H]3C[C@H](O)[C@]12C
